Measurements reported in ChEMBL document CHEMBL1909046, “DrugMatrix in vitro pharmacology data”.

How the values were obtained:
[1] = biological target: T1, Amine oxidase [flavin-containing] A (Homo sapiens, UniProt P21397); test: DRUGMATRIX: Monoamine Oxidase MAO-A enzyme inhibition (substrate: Kynuramine); parameters: species or system BTI-TN-5B1-4; details: Not Active = under 50% inhibition at 10 µM
T1 sequence (P21397 whole entry): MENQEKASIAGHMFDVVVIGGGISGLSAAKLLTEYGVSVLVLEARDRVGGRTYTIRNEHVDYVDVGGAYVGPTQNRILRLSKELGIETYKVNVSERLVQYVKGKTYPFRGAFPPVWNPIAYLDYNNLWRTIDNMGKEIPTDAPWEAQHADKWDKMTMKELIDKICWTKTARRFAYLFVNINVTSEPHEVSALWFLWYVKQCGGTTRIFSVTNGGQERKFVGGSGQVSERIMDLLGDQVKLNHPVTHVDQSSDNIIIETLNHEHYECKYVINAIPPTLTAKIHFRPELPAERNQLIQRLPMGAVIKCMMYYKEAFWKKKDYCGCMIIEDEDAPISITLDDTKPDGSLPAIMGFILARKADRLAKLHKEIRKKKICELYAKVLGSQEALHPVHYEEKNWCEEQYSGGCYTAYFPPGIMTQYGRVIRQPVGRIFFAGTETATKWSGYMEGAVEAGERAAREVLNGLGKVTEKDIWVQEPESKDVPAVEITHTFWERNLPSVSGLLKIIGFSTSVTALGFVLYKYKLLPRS

[2] = biological target: T2, 3-hydroxy-3-methylglutaryl-coenzyme A reductase (Homo sapiens, UniProt P04035); parameters: species or system Escherichia coli;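 note: enzyme inhibition assay of HMG-CoA reductase using radiolabeled [14C]HMG-CoA as substrate; in other assays of this panel Not Active means under 50% inhibition at 10 µM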
T2 sequence (P04035 whole entry): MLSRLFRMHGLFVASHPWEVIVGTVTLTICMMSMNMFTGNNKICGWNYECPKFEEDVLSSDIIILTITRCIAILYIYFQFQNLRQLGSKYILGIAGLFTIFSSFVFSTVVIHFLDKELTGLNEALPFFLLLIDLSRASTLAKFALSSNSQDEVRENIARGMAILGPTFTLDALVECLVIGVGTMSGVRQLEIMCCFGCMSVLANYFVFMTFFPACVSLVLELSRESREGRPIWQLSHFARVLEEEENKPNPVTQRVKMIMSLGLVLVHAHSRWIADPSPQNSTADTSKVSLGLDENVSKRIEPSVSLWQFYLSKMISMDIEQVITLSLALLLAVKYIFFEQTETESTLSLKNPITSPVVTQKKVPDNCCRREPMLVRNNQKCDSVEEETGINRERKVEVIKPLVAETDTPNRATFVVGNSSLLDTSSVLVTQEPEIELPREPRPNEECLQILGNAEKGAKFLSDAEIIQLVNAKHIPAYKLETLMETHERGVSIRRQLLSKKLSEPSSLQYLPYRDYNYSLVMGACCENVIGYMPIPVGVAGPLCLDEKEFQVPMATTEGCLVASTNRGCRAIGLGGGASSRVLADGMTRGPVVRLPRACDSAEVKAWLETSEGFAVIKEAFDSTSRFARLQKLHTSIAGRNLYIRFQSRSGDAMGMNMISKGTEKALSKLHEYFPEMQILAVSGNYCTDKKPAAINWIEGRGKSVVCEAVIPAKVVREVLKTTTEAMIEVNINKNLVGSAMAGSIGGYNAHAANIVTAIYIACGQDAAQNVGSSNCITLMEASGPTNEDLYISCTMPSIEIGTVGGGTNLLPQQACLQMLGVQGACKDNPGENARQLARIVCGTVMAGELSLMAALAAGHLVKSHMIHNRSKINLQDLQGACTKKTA

Cytochrome P450 2C19 = Cytochrome P450 2C19 (Homo sapiens, UniProt P33261); details: bti-tn-5b1-4; note: in other assays of this panel Not Active means under 50% inhibition at 10 µM
Sequence of Cytochrome P450 2C19 (P33261 whole entry): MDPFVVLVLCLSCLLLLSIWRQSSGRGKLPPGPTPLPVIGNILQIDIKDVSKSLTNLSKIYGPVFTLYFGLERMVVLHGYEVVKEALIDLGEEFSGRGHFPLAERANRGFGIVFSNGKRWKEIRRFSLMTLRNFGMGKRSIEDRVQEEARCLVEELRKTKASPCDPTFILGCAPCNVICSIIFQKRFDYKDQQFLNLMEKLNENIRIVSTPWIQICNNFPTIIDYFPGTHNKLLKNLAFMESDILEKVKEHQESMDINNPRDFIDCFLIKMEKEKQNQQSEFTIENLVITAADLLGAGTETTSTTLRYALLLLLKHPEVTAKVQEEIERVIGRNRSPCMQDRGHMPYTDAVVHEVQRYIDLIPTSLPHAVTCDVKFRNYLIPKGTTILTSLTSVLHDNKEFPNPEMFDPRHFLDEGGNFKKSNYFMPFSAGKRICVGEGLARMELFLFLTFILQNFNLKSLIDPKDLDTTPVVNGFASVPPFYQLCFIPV

[3] = biological target: Protein phosphatase 3 catalytic subunit alpha (Homo sapiens, UniProt Q08209); parameters: species or system Escherichia coli;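 note: inhibition of calcineurin (PP2B) enzyme activity, measured with DiFMUP as the substrate; in other assays of this panel Not Active means under 50% inhibition at 10 µM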
[4] = biological target: T3, Muscarinic acetylcholine receptor M4 (Homo sapiens, UniProt P08173); type: cell membranes, CHO-K1, Membrane; details: cho-k1; note: in other assays of this panel Not Active means under 50% inhibition at 10 µM
T3 sequence (P08173 whole entry): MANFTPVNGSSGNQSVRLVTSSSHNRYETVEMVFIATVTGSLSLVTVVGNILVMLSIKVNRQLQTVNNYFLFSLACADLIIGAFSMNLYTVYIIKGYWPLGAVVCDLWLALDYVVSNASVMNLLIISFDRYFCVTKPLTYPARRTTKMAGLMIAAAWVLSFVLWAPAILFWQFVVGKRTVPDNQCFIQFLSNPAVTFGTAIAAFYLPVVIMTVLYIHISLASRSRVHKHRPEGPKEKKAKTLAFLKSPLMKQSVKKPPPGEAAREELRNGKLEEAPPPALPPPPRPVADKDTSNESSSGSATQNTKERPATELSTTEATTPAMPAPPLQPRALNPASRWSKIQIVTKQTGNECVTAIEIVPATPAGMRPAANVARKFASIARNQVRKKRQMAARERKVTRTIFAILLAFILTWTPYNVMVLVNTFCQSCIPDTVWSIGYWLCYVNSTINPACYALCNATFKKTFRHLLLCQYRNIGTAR

Adenosine receptor A2a = Adenosine receptor A2a (Homo sapiens, UniProt P29274); test: DRUGMATRIX: Adenosine A2A radioligand binding (ligand: […]); type: cell membranes, HEK293, Membrane; details: Not Active = under 50% inhibition at 10 µM; for Ki: read-out: Ki
Sequence of Adenosine receptor A2a (P29274 whole entry): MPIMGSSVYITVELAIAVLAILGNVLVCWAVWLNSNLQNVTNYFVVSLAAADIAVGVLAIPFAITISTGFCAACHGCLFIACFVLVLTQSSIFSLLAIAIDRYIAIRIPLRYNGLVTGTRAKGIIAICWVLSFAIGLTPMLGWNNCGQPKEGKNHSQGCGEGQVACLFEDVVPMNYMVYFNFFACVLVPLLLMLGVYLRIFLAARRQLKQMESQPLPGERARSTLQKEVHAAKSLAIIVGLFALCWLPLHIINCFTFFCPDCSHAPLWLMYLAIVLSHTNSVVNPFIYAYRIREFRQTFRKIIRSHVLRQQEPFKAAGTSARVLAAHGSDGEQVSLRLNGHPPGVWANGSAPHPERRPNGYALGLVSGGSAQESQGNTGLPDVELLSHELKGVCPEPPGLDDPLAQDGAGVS

SMILES | IC50 ([1]; bti-tn-5b1-4) | IC50 [2] | IC50 (Cytochrome P450 2C19) | Ki (Cytochrome P450 2C19) | IC50 [3] | IC50 [4] | IC50 (Adenosine receptor A2a; hek293) | IC50 ([1]; read-out: IC50) | IC50 (Adenosine receptor A2a; read-out: IC50) | Ki (Adenosine receptor A2a)
C[C@H]1O[C@@H](n2cc(F)c(=O)[nH]c2=O)[C@H](O)[C@@H]1O [DOXIFLURIDINE] | Not Active | Not Active | Not Active | Not Active | Not Active | Not Active | Not Active | – | – | –
Cn1c(=O)c2c(ncn2CC(O)CO)n(C)c1=O (centres undefined) [DYPHYLLINE] | Not Active | Not Active | Not Active | Not Active | Not Active | Not Active | Not Active | – | – | –
C[C@@H](CO)NC(=O)[C@@H]1C=C2c3cccc4[nH]cc(c34)C[C@H]2N(C)C1 [ERGONOVINE] | Not Active | Not Active | Not Active | Not Active | Not Active | Not Active | Not Active | – | – | –
COC(=O)CCc1ccc(OCC(O)CNC(C)C)cc1 (centres undefined) [ESMOLOL] | Not Active | Not Active | Not Active | Not Active | Not Active | Not Active | Not Active | – | – | –
CCC1(C)CC(=O)NC1=O (centres undefined) [ETHOSUXIMIDE] | Not Active | Not Active | Not Active | Not Active | Not Active | Not Active | Not Active | – | – | –
C=CCc1ccc(O)c(OC)c1 [EUGENOL] | Not Active | Not Active | Not Active | Not Active | Not Active | Not Active | Not Active | – | – | –
CC(C(=O)O)c1cccc(Oc2ccccc2)c1 (centres undefined) [FENOPROFEN] | Not Active | Not Active | Not Active | Not Active | Not Active | Not Active | Not Active | – | – | –
Nc1ccn([C@@H]2O[C@H](CO)[C@@H](O)C2(F)F)c(=O)n1 [GEMCITABINE] | Not Active | Not Active | Not Active | Not Active | Not Active | Not Active | Not Active | – | – | –
N=C(N)NC(=O)Cc1c(Cl)cccc1Cl [GUANFACINE] | Not Active | Not Active | Not Active | Not Active | Not Active | Not Active | Not Active | – | – | –
NNc1nncc2ccccc12 [HYDRALAZINE] | Not Active | Not Active | Not Active | Not Active | Not Active | Not Active | Not Active | – | – | –
CC(C)NNC(=O)c1ccncc1 [IPRONIAZID] | Not Active | Not Active | Not Active | Not Active | Not Active | Not Active | Not Active | – | – | –
O=c1cc(N2CCOCC2)oc2c(-c3ccccc3)cccc12 [LY-294002] | Not Active | Not Active | Not Active | Not Active | Not Active | Not Active | Not Active | – | – | –
NC(=O)C[S+]([O-])C(c1ccccc1)c1ccccc1 (centres undefined) [MODAFINIL] | Not Active | Not Active | Not Active | Not Active | Not Active | Not Active | Not Active | – | – | –
CCN(CC)CCOCCC1=CCC2CC1C2(C)C (centres undefined) [MYRTECAINE] | Not Active | Not Active | Not Active | Not Active | Not Active | Not Active | Not Active | – | – | –
O=C(O)c1cccnc1Nc1cccc(C(F)(F)F)c1 [NIFLUMIC ACID] | Not Active | Not Active | Not Active | Not Active | Not Active | Not Active | Not Active | – | – | –
COC(=O)Nc1nc2ccc(C(=O)c3cccs3)cc2[nH]1 [NOCODAZOLE] | – | Not Active | Not Active | Not Active | Not Active | Not Active | – | 24.1 µM | 7.51 µM | 4.22 µM
C#CC1(O)CC[C@H]2[C@@H]3CCC4=CC(=O)CC[C@@H]4[C@H]3CC[C@@]21CC (some centres undefined) [NORGESTREL] | Not Active | Not Active | Not Active | Not Active | Not Active | Not Active | Not Active | – | – | –
COC(=O)Nc1nc2ccc([S+]([O-])c3ccccc3)cc2[nH]1 (centres undefined) [OXFENDAZOLE] | Not Active | Not Active | Not Active | Not Active | Not Active | Not Active | – | – | 1.5 µM | 0.844 µM
C[n+]1ccc(-c2cc[n+](C)cc2)cc1.[Cl-].[Cl-] [PARAQUAT DICHLORIDE] | Not Active | Not Active | Not Active | Not Active | Not Active | Not Active | Not Active | – | – | –
CCn1cc(C(=O)O)c(=O)c2cnc(N3CCCC3)nc21 [PIROMIDIC ACID] | Not Active | Not Active | Not Active | Not Active | Not Active | Not Active | Not Active | – | – | –
C[n+]1ccccc1/C=N/O.[Cl-] [PRALIDOXIME CHLORIDE] | Not Active | Not Active | Not Active | Not Active | Not Active | Not Active | Not Active | – | – | –
COc1cc2nc(N3CCN(C(=O)c4ccco4)CC3)nc(N)c2cc1OC [PRAZOSIN] | Not Active | Not Active | Not Active | Not Active | Not Active | Not Active | Not Active | – | – | –
C[C@]12C=CC(=O)C=C1CC[C@@H]1[C@@H]2[C@@H](O)C[C@@]2(C)[C@H]1CC[C@]2(O)C(=O)CO [PREDNISOLONE] | Not Active | Not Active | Not Active | Not Active | Not Active | Not Active | Not Active | – | – | –
CC(=O)[C@H]1[C@H](C#N)C[C@H]2[C@@H]3CC=C4C[C@@H](O)CC[C@]4(C)[C@H]3CC[C@@]21C [PREGNENOLONE CARBONITRILE] | Not Active | Not Active | Not Active | Not Active | Not Active | Not Active | Not Active | – | – | –
CCCN(CCC)S(=O)(=O)c1ccc(C(=O)O)cc1 [PROBENECID] | Not Active | Not Active | Not Active | Not Active | Not Active | Not Active | Not Active | – | – | –
CCCOc1ccc(C(=O)OCCN(CC)CC)cc1N [PROPARACAINE] | – | Not Active | Not Active | Not Active | Not Active | Not Active | Not Active | 1.78 µM | – | –
